The text below walks through data of ChEMBL document CHEMBL5649166, “RIP3 induces apoptosis independent of pronecrotic kinase activity” (Mol Cell, 2014).

Structures are written as SMILES.

Test [1] deals with Tyrosine-protein kinase Lyn (Homo sapiens) (UniProt P07948). Briefly: Inhibition of human LYN B using poly[Glu:Tyr] (4:1) as substrate at 1 uM in presence of 32P-ATP by Hotspot assay relative to control; values are per cent of control.
For test [2], the target named is T1, Interleukin-1 receptor-associated kinase 4 (Homo sapiens) (UniProt Q9NWZ3).
T1 sequence (whole entry): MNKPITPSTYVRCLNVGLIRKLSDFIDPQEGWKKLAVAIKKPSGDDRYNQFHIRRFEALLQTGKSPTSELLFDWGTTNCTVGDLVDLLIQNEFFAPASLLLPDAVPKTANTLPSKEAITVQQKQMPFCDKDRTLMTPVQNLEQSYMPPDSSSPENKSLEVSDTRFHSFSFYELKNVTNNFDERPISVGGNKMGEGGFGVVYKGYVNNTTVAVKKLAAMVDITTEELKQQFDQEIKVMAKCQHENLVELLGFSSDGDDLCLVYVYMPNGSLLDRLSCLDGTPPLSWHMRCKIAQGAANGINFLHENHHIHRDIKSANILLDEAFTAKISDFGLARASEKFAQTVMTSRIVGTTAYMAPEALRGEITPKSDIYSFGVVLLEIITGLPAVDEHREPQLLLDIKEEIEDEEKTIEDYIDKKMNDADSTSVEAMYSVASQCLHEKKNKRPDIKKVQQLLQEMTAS
Briefly: Inhibition of human IRAK4 using myelin basic protein as substrate at 1 uM in presence of 32P-ATP by Hotspot assay relative to control; values are per cent of control.

Test [3] addresses T2, Serine/threonine-protein kinase BRSK2 (Homo sapiens) (UniProt Q8IWQ3).
T2 sequence (whole entry): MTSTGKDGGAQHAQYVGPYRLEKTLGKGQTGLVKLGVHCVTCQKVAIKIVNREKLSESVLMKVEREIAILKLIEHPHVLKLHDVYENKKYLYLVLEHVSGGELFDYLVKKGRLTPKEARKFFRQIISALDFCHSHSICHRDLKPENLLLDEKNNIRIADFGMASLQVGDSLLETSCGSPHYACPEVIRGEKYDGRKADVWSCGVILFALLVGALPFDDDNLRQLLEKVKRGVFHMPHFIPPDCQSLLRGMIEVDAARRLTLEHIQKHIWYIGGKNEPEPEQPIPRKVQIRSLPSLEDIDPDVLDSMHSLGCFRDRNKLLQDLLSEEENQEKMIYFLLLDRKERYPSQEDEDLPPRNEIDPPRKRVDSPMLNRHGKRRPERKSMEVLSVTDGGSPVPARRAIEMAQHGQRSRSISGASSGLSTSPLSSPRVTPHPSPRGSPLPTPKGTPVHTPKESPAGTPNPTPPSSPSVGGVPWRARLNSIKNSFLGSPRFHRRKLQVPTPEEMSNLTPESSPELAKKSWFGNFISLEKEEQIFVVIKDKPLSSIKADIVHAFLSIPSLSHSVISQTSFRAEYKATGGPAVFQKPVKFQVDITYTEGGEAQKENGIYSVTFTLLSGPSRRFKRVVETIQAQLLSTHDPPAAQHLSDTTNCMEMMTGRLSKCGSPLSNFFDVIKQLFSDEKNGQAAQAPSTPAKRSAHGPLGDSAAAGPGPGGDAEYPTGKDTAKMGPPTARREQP
Briefly: Inhibition of human BRSK2 using KKLNRTLSFAEPG as substrate at 1 uM in presence of 32P-ATP by Hotspot assay relative to control; values are per cent of control.

Test [4] has as its target Maternal embryonic leucine zipper kinase (Homo sapiens) (UniProt Q14680). The experiment in a line: Inhibition of human MELK using KKLNRTLSFAEPG as substrate at 1 uM in presence of 32P-ATP by Hotspot assay relative to control; values are per cent of control.
The target in test [5] is Protein kinase C beta type (Homo sapiens) (UniProt P05771). The experiment in a line: Inhibition of human PKCb1 using ERMRPRKRQGSVRRRV as substrate at 1 uM in presence of 32P-ATP by Hotspot assay relative to control; values are per cent of control.
Sequence of Protein kinase C beta type (Homo sapiens) (P05771 2-671 limits assumed): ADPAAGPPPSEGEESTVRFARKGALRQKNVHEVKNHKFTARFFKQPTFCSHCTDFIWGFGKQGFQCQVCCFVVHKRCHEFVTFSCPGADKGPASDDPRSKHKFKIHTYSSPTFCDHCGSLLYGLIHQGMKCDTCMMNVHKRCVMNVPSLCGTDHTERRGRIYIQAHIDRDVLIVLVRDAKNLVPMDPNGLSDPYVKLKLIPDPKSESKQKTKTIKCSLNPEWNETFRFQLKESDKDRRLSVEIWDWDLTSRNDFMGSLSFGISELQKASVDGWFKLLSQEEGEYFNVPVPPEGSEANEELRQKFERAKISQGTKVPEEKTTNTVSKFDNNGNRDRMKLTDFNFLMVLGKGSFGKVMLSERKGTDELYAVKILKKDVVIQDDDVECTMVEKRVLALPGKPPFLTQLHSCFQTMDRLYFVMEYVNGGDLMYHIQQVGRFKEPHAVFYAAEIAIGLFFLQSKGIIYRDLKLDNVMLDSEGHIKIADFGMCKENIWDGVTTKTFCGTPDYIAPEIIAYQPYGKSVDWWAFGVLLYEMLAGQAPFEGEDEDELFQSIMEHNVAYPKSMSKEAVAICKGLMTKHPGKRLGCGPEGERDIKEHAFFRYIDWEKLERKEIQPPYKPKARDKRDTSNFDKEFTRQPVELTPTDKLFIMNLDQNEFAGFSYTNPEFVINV
Test [6] addresses MAP kinase-interacting serine/threonine-protein kinase 2 (Homo sapiens) (UniProt Q9HBH9). The experiment in a line: Inhibition of human MNK2 using myelin basic protein as substrate at 1 uM in presence of 32P-ATP by Hotspot assay relative to control; values are per cent of control.
The target of test [7] is Tyrosine-protein kinase BTK (Homo sapiens) (UniProt Q06187). The experiment in a line: Inhibition of human BTK using poly[Glu:Tyr] (4:1) as substrate at 1 uM in presence of 32P-ATP by Hotspot assay relative to control; values are per cent of control.
Sequence of Tyrosine-protein kinase BTK (Homo sapiens) (Q06187 whole entry): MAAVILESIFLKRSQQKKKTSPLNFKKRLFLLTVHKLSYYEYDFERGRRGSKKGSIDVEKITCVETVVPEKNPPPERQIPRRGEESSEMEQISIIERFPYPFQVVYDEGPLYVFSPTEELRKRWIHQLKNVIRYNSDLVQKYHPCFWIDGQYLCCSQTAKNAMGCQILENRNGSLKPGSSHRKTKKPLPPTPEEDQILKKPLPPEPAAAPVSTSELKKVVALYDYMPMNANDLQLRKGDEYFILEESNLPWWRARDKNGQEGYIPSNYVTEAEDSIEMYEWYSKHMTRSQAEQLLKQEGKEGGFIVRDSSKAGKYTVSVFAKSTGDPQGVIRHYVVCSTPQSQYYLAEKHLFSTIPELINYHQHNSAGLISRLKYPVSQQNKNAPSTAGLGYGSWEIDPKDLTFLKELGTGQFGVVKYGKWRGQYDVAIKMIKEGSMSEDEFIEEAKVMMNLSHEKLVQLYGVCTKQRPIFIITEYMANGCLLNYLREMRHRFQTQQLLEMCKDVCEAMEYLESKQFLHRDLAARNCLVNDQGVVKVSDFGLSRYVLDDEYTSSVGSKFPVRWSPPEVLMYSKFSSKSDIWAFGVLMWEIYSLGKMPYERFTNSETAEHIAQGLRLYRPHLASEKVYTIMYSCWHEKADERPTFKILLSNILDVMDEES
In test [8] the target is T3, Serine/threonine-protein kinase Sgk2 (Homo sapiens) (UniProt Q9HBY8).
T3 sequence (whole entry): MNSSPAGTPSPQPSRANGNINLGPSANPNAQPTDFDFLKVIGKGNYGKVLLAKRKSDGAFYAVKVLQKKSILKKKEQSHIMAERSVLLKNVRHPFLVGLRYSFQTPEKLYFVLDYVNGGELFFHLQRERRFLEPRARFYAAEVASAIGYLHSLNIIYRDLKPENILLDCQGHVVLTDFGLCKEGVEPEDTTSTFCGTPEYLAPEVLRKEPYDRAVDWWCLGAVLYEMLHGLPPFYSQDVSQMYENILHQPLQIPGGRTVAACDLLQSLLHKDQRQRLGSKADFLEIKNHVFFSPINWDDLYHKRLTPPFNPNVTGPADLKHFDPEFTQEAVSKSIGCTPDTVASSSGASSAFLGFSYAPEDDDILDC
Briefly: Inhibition of human SGK2 using KGSGSGRPRTSSFAEG as substrate at 1 uM in presence of 32P-ATP by Hotspot assay relative to control; values are per cent of control.

Test [9] addresses T4, Testis-specific serine/threonine-protein kinase 2 (Homo sapiens) (UniProt Q96PF2).
T4 sequence (whole entry): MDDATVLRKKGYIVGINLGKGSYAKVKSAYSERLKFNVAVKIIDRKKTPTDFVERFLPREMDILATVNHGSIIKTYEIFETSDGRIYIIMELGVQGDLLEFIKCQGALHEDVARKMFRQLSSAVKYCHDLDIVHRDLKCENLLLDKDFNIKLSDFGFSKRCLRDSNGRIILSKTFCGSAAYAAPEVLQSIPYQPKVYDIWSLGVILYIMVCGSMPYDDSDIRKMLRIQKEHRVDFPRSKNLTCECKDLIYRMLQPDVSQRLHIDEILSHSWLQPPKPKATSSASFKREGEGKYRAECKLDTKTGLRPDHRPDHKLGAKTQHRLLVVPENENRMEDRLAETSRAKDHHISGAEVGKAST
The experiment in a line: Inhibition of human TSSK2 using KKKVSRSGLYRSPSMPENLNRPR as substrate at 1 uM in presence of 32P-ATP by Hotspot assay relative to control; values are per cent of control.

Sequence of Tyrosine-protein kinase Lyn (Homo sapiens) (P07948 2-512 limits assumed): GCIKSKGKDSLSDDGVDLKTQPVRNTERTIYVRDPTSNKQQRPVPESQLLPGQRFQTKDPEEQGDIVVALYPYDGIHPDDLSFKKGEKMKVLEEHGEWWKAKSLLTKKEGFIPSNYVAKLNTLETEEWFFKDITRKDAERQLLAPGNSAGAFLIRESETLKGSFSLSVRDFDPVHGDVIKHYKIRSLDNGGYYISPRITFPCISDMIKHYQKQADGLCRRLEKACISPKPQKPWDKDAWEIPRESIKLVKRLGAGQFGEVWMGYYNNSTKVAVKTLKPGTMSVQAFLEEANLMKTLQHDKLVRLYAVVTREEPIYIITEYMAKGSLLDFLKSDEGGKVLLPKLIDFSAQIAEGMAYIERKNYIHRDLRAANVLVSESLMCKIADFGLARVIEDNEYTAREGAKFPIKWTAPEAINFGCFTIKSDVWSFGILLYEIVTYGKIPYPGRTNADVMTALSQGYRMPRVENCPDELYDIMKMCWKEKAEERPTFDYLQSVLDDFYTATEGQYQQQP
Sequence of Maternal embryonic leucine zipper kinase (Homo sapiens) (Q14680 whole entry, looked up): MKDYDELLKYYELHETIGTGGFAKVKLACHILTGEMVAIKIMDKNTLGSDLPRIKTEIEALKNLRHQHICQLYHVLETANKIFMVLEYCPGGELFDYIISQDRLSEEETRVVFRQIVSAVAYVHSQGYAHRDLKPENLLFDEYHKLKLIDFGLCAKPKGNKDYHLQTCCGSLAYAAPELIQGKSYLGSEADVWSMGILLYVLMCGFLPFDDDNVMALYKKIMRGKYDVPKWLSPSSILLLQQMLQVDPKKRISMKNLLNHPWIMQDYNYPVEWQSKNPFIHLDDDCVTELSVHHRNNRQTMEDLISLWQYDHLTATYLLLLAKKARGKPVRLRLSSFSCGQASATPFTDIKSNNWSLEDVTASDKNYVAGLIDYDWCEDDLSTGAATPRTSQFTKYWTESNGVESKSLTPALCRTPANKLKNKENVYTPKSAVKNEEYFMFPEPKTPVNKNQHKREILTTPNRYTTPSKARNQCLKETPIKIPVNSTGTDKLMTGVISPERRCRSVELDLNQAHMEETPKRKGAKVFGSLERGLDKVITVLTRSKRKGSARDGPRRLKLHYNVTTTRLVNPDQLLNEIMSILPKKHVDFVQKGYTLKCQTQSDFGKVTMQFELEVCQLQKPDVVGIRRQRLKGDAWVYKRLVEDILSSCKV
Sequence of MAP kinase-interacting serine/threonine-protein kinase 2 (Homo sapiens) (Q9HBH9 whole entry, looked up): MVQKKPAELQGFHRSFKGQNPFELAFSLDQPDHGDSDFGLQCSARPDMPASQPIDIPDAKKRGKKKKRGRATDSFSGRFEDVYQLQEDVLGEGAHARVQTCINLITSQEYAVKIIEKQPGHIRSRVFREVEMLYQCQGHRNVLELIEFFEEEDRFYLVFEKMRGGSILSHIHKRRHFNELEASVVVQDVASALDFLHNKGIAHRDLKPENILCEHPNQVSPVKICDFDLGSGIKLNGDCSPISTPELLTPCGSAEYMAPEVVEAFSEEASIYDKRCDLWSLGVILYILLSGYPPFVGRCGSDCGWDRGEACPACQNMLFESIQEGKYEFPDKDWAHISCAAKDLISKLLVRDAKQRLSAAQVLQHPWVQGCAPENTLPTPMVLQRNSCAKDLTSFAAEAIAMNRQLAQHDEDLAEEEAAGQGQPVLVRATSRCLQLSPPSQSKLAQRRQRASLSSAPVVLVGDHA

As a reminder, the residual activity is the signal under treatment as a percentage of the control signal. Take `Cc1cc(-c2cnc(N)c3c(-c4ccc5scnc5c4)csc23)n(C)n1`: the residual activity in test [1] was found to be 14%; in test [2], 99.7%; in test [3], 89%; in test [4] it was 88.2%; in [5], 96.1%; in test [6] it was 97.9%. For the same compound, the residual activity in test [7] came out at 58%; in [8], 87.7%; in test [9], 97.2%.

`CC(C)S(=O)(=O)c1ccc2nccc(Nc3ccc4scnc4c3)c2c1`: the residual activity amounted to 74.6% in test [1]; 97.5% in [2]; 99.4% in test [3]; 96.5% in test [4]; 96.3% in test [5]; 96% in test [6]. Also, the residual activity in test [7] was determined as 30.4%; in test [8], 99.9%; in [9] it was 102%.

`CNC(=O)c1ccc2c(c1)ncn2-c1ccc(CC(=O)OC(C)(C)C)cc1`: the residual activity stood at 89.2% in test [1]; 102% in test [2]; 92% in [3]; 105% in test [4]; 95% in [5]; 70.6% in [6]. Also, the residual activity stood at 79.8% in test [7], 102% in test [8] and 98.9% in [9].
